# In patent publication US4263280A, “Synergistic mixtures” (priority 1978, dated 1981):
# Counter-ions that a name gives are not always drawn.
# What was measured:
# [1] = tested on: Pseudomonas aeruginosa 1140; assay: in vitro MIC, chessboard microdilution, Pseudomonas aeruginosa 1140; assay type: cell-based
# Protocol: (§1) The combination substances A and B are diluted in DST broth OXOID in chessboard arrangement with the aid of microtitre system in 1:2 steps. All the concentrations of substance A are combined with all the concentrations of substance B and then inoculated with a standardised bacteria suspension (final concentration about 10^4 bacilli/ml). After incubation for 18 hours at 37° C., the inhibition of the bacterial growth is determined. The inhibiting concentrations are converted by the method of Kerry et al. (J. Antimicrob. […] By way of example, a number of the MIC values for the action of cefsulodin sodium, mecillinam, mezlocillin and gentamicin alone against a number of micro-organisms, as well as the MIC values for a number of mixtures in which synergism occurs, are reported in Table 1.
# Escherichia coli 12-44 = assay: in vitro MIC, chessboard microdilution, Escherichia coli 12-44; assay type: cell-based
# Protocol: as §1
# [2] = tested on: Klebsiella pneumoniae 329 + Escherichia coli 205; assay: systemic polyinfection in mice, survival, Klebsiella pneumoniae 329 + Escherichia coli 205; assay type: in vivo; details: 100 mg/kg s.c., fifth day
# Protocol: (§2) The combination substances A and B are diluted in 1:3 to 1:3.3 steps such that the average concentration contains the respective amount of substance A and substance B corresponding to the ED50.
# (§3) Female MF 2 mice weighing 18 to 22 g are divided at random into groups (n=20) and infected intraperitoneally with a standardised bacteria suspension which, according to strain, represents 5 to >20 LD50.
# (§4) Immediately after the infection, and 3 hours later, the mice are treated in groups subcutaneously with dilutions of substances A and B as well as with combinations thereof. These combinations are prepared shortly before administration by mixing each dilution of substance A with each dilution of substance B. The survival rates are determined on the fifth day after the infection. The survival rates of mice which are determined with each of substances A and B alone are compared with those obtained with the combinations of these substances. A combination which has protected more animals from death than would be expected from the independent action of the substances, is designated as having synergistic action.
# (§5) The survival rates, expressed as percentages of surviving animals, found in infections with a number of pure micro-organisms and in polyinfections is reported in Table 2 for cefsulodin sodium, mecillinam, mezlocillin, gentamicin and CGP 14 221/E, as well as for corresponding mixtures.
# Klebsiella pneumoniae 1 = assay: in vitro MIC, chessboard microdilution, Klebsiella pneumoniae 1; assay type: cell-based
# Protocol: as §1
# [3] = tested on: anaerobei, for example Bacteroides; details: cited from earlier work
# Proteus mirabilis 1077 = assay: in vitro MIC, chessboard microdilution, Proteus mirabilis 1077; assay type: cell-based
# Protocol: as §1
# Escherichia coli 205 = assay: systemic infection in mice, survival, Escherichia coli 205; assay type: in vivo; details: fifth day
# Protocol: as §2, §3, §4, §5
# [4] = tested on: Pseudomonas aeruginosa + Klebsiella pneumoniae; assay: experimental pyelonephritis (polyinfection) in mice, Pseudomonas aeruginosa + Klebsiella pneumoniae; assay type: in vivo; details: percentage of animals, 25 mg/kg s.c.
# Protocol: (§6) Mice are treated intravenously with 10 mg/kg of carrageenin. Seven days later they are infected with a standardised suspension of bacteria. […] Two days after the last treatment, the mice are sacrificed, dissected and examined for the number of germs in the kidneys.
# [5] = tested on: Pseudomonas aeruginosa + Escherichia coli; assay: experimental pyelonephritis (polyinfection) in mice, Pseudomonas aeruginosa + Escherichia coli; assay type: in vivo; details: percentage of animals, 25 mg/kg s.c.
# Protocol: as §6
# [6] = tested on: Gram-negative cocci, Gram-positive cocci and bacteria, and especially against Pseudomonas strains; details: carbenicillin-sensitive and carbenicillin-resistant Pseudomonas; cited from earlier work
# [7] = tested on: enterobacteria, such as Escherichia coli and Klebsiella pneumoniae; details: cited from earlier work
# [8] = tested on: Escherichia coli 205 RTEM^+; assay: systemic infection in mice, survival, Escherichia coli 205 RTEM+; assay type: in vivo; details: 40 mg/kg s.c., fifth day
# Protocol: as §2, §3, §4, §5
# [9] = tested on: Pseudomonas aeruginosa G 121; assay: in vitro MIC, chessboard microdilution, Pseudomonas aeruginosa G 121; assay type: cell-based
# Protocol: as §1
# [10] = tested on: Kiebsiella pneumoniae 1132; assay: in vitro MIC, chessboard microdilution, Klebsiella pneumoniae 1132; assay type: cell-based
# Protocol: as §1
# [11] = tested on: Klebsiella pneumoniae 327; assay: systemic infection in mice, survival, Klebsiella pneumoniae 327; assay type: in vivo; details: fifth day
# Protocol: as §2, §3, §4, §5
# [12] = tested on: Klebsiella pneumoniae 329; assay: systemic infection in mice, survival, Klebsiella pneumoniae 329; assay type: in vivo; details: fifth day
# Protocol: as §2, §3, §4, §5
# [13] = tested on: Pseudomonas aeruginosa 799A; assay: in vitro MIC, chessboard microdilution, Pseudomonas aeruginosa 799A; assay type: cell-based
# Protocol: as §1
# Proteus rettgeri 1121 = assay: in vitro MIC, chessboard microdilution, Proteus rettgeri 1121; assay type: cell-based
# Protocol: as §1
# Staphylococcus aureus = assay: in vitro MIC, chessboard microdilution, Staphylococcus aureus; assay type: cell-based
# Protocol: as §1
# [14] = tested on: Pseudomonas aeruginosa 410; assay: in vitro MIC, chessboard microdilution, Pseudomonas aeruginosa 410; assay type: cell-based
# Protocol: as §1
# Escherichia coli 576 = assay: in vitro MIC, chessboard microdilution, Escherichia coli 576; assay type: cell-based
# Protocol: as §1
# [15] = tested on: Klebsiella pneumoniae 1136; assay: in vitro MIC, chessboard microdilution, Klebsiella pneumoniae 1136; assay type: cell-based
# Protocol: as §1
# [16] = in combination with Mecillinam 0.25 mcg/ml
# [17] = in combination with Gentamicin 0.25 mcg/ml
smiles,measurement,setting,value
"NC(=O)c1cc[n+](CC2=C(C(=O)O)N3C(=O)[C@@H](NC(=O)[C@@H](c4ccccc4)S(=O)(=O)[O-])[C@H]3SC2)cc1 [Cefsulodin-Na, sodium salt of N-[7β-(α-sulfophenylacetamido)ceph-3-em-3-yl-methyl]-4'-carbamoylpyridinium-4-carboxylate]",MIC,"[1]; Pseudomonas aeruginosa, 1140, alone, 18 hours, 37° C., read-out: MIC, antibiotic alone",8 µg/mL
same,"MIC, antibiotic A in combination with B",[1]; in combination with Gentamicin 4 mcg/ml,2 µg/mL
same,MIC,"Escherichia coli 12-44; Escherichia coli, 1244, alone, 18 hours, 37° C., read-out: MIC, antibiotic alone",25 µg/mL
same,"MIC, antibiotic A in combination with B",Escherichia coli 12-44; in combination with Mecillinam 0.12 mcg/ml,12.5 µg/mL
same,"surviving animals, antibiotic alone",[2],0%
same,MIC,"Klebsiella pneumoniae 1; Klebsiella pneumoniae, 1, alone, 18 hours, 37° C., read-out: MIC, antibiotic alone",50 µg/mL
same,"MIC, antibiotic A in combination with B",Klebsiella pneumoniae 1; in combination with Mezlocillin 0.16 mcg/ml,25 µg/mL
same,antibiotic action against anaerobei,[3],relatively insignificant action
same,MIC,"Proteus mirabilis 1077; Proteus mirabilis, 1077, alone, 18 hours, 37° C., read-out: MIC, antibiotic alone",50 µg/mL
same,"MIC, antibiotic A in combination with B",Proteus mirabilis 1077; in combination with Mezlocillin 0.25 mcg/ml,12.5 µg/mL
same,"surviving animals, antibiotic alone",Escherichia coli 205; 25 mg/kg s.c.,5%
same,"surviving animals, antibiotic alone",Escherichia coli 205; 40 mg/kg s.c.,10%
same,"Clearance of the kidneys from both micro-organisms, antibiotic alone",[4],10%
same,"Clearance of the kidneys from both micro-organisms, antibiotic alone",[5],0%
same,antibiotic action,[6],"directed against Gram-negative cocci, Gram-positive cocci and bacteria, and especially against Pseudomonas strains, both carbenicillin-sensitive and carbenicillin-resistant"
same,antibiotic action against enterobacteria,[7],relatively insignificant action
same,"surviving animals, antibiotic alone",[8],0%
same,MIC,"[9]; Pseudomonas aeruginosa, G121, alone, 18 hours, 37° C., read-out: MIC, antibiotic alone",1.2 µg/mL
same,"MIC, antibiotic A in combination with B",[9]; in combination with Mezlocillin 12.5 mcg/ml,0.04 µg/mL
same,MIC,"[10]; Klebsiella pneumoniae, 1132, alone, 18 hours, 37° C., read-out: MIC, antibiotic alone",25 µg/mL
same,"MIC, antibiotic A in combination with B",[10]; [16],6.2 µg/mL
same,"surviving animals, antibiotic alone",[11]; 50 mg/kg s.c.,0%
same,"surviving animals, antibiotic alone",[11]; 100 mg/kg s.c.,0%
same,"surviving animals, antibiotic alone",[12]; 40 mg/kg s.c.,0%
same,"surviving animals, antibiotic alone",[12]; 50 mg/kg s.c.,0%
same,"surviving animals, antibiotic alone",[12]; 80 mg/kg s.c.,5%
same,MIC,"[13]; Pseudomonas aeruginosa, 799A, alone, 18 hours, 37° C., read-out: MIC, antibiotic alone",1 µg/mL
same,"MIC, antibiotic A in combination with B",[13]; in combination with Mecillinam 32 mcg/ml,0.25 µg/mL
same,MIC,"Proteus rettgeri 1121; Providencia rettgeri, 1121, alone, 18 hours, 37° C., read-out: MIC, antibiotic alone",12.5 µg/mL
same,"MIC, antibiotic A in combination with B",Proteus rettgeri 1121; in combination with Gentamicin 0.5 mcg/ml,0.8 µg/mL
same,"MIC, antibiotic A in combination with B",Proteus rettgeri 1121; in combination with Mecillinam 1.6 mcg/ml,0.4 µg/mL
same,MIC,"Staphylococcus aureus; Staphylococcus aureus, alone, 18 hours, 37° C., read-out: MIC, antibiotic alone",3.2 µg/mL
same,"MIC, antibiotic A in combination with B",Staphylococcus aureus; in combination with Mezlocillin 1.6 mcg/ml,0.2 µg/mL
same,MIC,"[14]; Pseudomonas aeruginosa, 410, alone, 18 hours, 37° C., read-out: MIC, antibiotic alone",2 µg/mL
same,"MIC, antibiotic A in combination with B",[14]; [17],0.06 µg/mL
same,MIC,"Escherichia coli 576; Escherichia coli, 576, alone, 18 hours, 37° C., read-out: MIC, antibiotic alone",64 µg/mL
same,"MIC, antibiotic A in combination with B",Escherichia coli 576; [17],32 µg/mL
same,MIC,"[15]; Klebsiella pneumoniae, 1136, alone, 18 hours, 37° C., read-out: MIC, antibiotic alone",50 µg/mL
same,"MIC, antibiotic A in combination with B",[15]; [16],12.5 µg/mL
